Source: patent publication US5637501A, “Apparatus for automatically testing the antibiotic sensitivity of a paraffinophilic microorganism” (Infectech, Inc., priority 1995, dated 1997)
Counter-ions that a name gives are not always drawn. Like-named read-outs stand apart in the source and are kept apart here.

Test system: MAI
Experiment: antibiotic sensitivity (MIC) of MAI strains, paraffin slide culture and microliter assays
Type: cell-based, Mycobacterium avium-intracellulare
Design: key: NG: No Growth
Description: The present invention has met the above-described need. In one embodiment, it provides a method of automatically testing the sensitivity of a paraffinophilic microorganism to different antimicrobial agents, such as antibiotics, and concentrations thereof, by providing a plurality of receptacles, each containing an amount of liquid medium, an antimicrobial agent to be tested and the microorganism to be tested. In each of the receptacles is placed a slide containing a paraffin source. The receptacles are then incubated, after which a light scatter sensing means automatically and sequentially monitors the extent of microorganism growth on the slides. The extent of colony growth is employed to determine which antimicrobial agent in which concentration is effective to resist growth of the microorganism. A preferred light scatter sensing means is a nephelometer.
Referring specifically to FIG. 1, there is shown a preferred embodiment of the present invention usable in a method of automatically testing the sensitivity of a pure culture of a microorganism to different antimicrobial agents and concentrations thereof. In this embodiment, a microorganism, which may have been previously speciated as by the technique taught in U.S. Pat. No. 5,153, 119, has been introduced into a plurality of receptacles, each containing an amount of liquid medium and antimicrobial agent to be tested. A paraffin slide is introduced into each of the receptacles which are subsequently incubated. The receptacles 2-22 (even numbers only) are fixedly secured to an elongated, substantially rigid movable carrier member 26, such that the receptacles 2-22 will be translated therewith in the direction shown by the arrow A. The carrier member 26 may be made of any suitable material, such as aluminum, steel, stainless steel, or resinous plastic, for example. The receptacles 2-22, respectively, contain slides 32-52 (even numbers only). The slides 32-52 are fixedly secured, respectively, within receptacles 2-22 which may test tubes. The slides 32-52 are generally oriented so as to have their elongated direction aligned with the direction of travel of the carrier 26. As the carrier moves in the direction of arrow A, the slides 2-22 will sequentially be positioned in operative relationship to the light scatter sensing means which consists of light source 60, which directs a light beam toward light detector 62. In the preferred embodiment, a beam of visible light from light source 60 will impinge upon slide 32, with the growth of the microorganism thereon producing a corresponding scatter of light which is received by the light receiving sensor 62 and converts the received light into an appropriate output electrical signal which will be delivered to computer means 64. The computer means 64, in turn, provides output to output means 66, which may conveniently be a display, such as a cathode ray tube or a hard copy printer, for example. The degree of light scatter will be related to the extent of microorganism growth with light scatter increasing as growth on the slide increases.
The computer means 64 may be a general purpose digital microprocessor. It may be programmed in a manner readily known to those skilled in the art to sequentially compare the light scatter value of each slide 32-52 with that of a control slide and to provide an output to output means 66, such as a visual screen display or hard copy, with or without prior enhancement, which indicates the difference between the control slide and the specific slides containing the same pure culture of a paraffinophilic microorganism, but exposed to different concentrations of different or the same antimicrobial agents, such an antibiotics. In this manner, there is provided the minimal concentration level of a specific antimicrobial agent that must be used to control growth of the microorganism. Also, the minimum bactericidal concentration may be determined. […]

O=C(O)c1cn(C2CC2)c2cc(N3CCNCC3)c(F)cc2c1=O [ciprofloxacin-HCl]
10 days: Days to Confluency (Exp. Series II, strain 4) | Days to Confluency (Exp. Series II, strain 6) | Days to Confluency (Exp. Series II, strain 7) | Days to Confluency (Exp. Series II, strain 9)
7.3 µg/mL: MIC (Mycobacterium avium-intracellulare, Exp. Series II, strain 5, read-out: MIC) | MIC (Mycobacterium avium-intracellulare, Exp. Series II, strain 11, read-out: MIC) | MIC (Mycobacterium avium-intracellulare, Exp. Series II, strain 15, read-out: MIC) | MIC (Mycobacterium avium-intracellulare, Exp. Series II, strain 16, read-out: MIC) | MIC (Mycobacterium avium-intracellulare, Exp. Series III, strain 5, read-out: MIC) | MIC (Mycobacterium avium-intracellulare, Exp. Series III, strain 6, read-out: MIC) | MIC (Mycobacterium avium-intracellulare, Exp. Series III, strain 7, read-out: MIC) | MIC (Mycobacterium avium-intracellulare, Exp. Series III, strain 11, read-out: MIC) | MIC (Mycobacterium avium-intracellulare, Exp. Series III, strain 12, read-out: MIC) | MIC (Mycobacterium avium-intracellulare, Exp. Series III, strain 15, read-out: MIC)
> 18.2 µg/mL: MIC (Mycobacterium avium-intracellulare, Exp. Series III, strain 13, read-out: MIC)
18.2 µg/mL: MIC (Mycobacterium avium-intracellulare, Exp. Series II, strain 2, read-out: MIC) | MIC (Mycobacterium avium-intracellulare, Exp. Series II, strain 13, read-out: MIC) | MIC (Mycobacterium avium-intracellulare, Exp. Series II, strain 14, read-out: MIC)
9 days: Days to Confluency (Exp. Series II, strain 1) | Days to Confluency (Exp. Series II, strain 2) | Days to Confluency (Exp. Series II, strain 5) | Days to Confluency (Exp. Series II, strain 8) | Days to Confluency (Exp. Series III, strain 4) | Days to Confluency (Exp. Series III, strain 6)
NG: Days to Confluency (Exp. Series II, strain 3) | MIC (Exp. Series II, strain 3)
7 days: Days to Confluency (Exp. Series II, strain 10) | Days to Confluency (Exp. Series II, strain 11) | Days to Confluency (Exp. Series II, strain 12) | Days to Confluency (Exp. Series II, strain 14) | Days to Confluency (Exp. Series II, strain 15) | Days to Confluency (Exp. Series II, strain 16) | Days to Confluency (Exp. Series III, strain 1) | Days to Confluency (Exp. Series III, strain 13) | Days to Confluency (Exp. Series III, strain 14) | Days to Confluency (Exp. Series III, strain 15)
10.9 µg/mL: MIC (Mycobacterium avium-intracellulare, Exp. Series II, strain 12, read-out: MIC)
3.6 µg/mL: MIC (Mycobacterium avium-intracellulare, Exp. Series II, strain 1, read-out: MIC) | MIC (Mycobacterium avium-intracellulare, Exp. Series II, strain 4, read-out: MIC) | MIC (Mycobacterium avium-intracellulare, Exp. Series II, strain 6, read-out: MIC) | MIC (Mycobacterium avium-intracellulare, Exp. Series II, strain 7, read-out: MIC) | MIC (Mycobacterium avium-intracellulare, Exp. Series II, strain 8, read-out: MIC) | MIC (Mycobacterium avium-intracellulare, Exp. Series II, strain 9, read-out: MIC) | MIC (Mycobacterium avium-intracellulare, Exp. Series III, strain 1, read-out: MIC) | MIC (Mycobacterium avium-intracellulare, Exp. Series III, strain 3, read-out: MIC) | MIC (Mycobacterium avium-intracellulare, Exp. Series III, strain 4, read-out: MIC) | MIC (Mycobacterium avium-intracellulare, Exp. Series III, strain 8, read-out: MIC) | MIC (Mycobacterium avium-intracellulare, Exp. Series III, strain 9, read-out: MIC) | MIC (Mycobacterium avium-intracellulare, Exp. Series III, strain 16, read-out: MIC)
6 days: Days to Confluency (Exp. Series III, strain 10) | Days to Confluency (Exp. Series III, strain 11) | Days to Confluency (Exp. Series III, strain 12) | Days to Confluency (Exp. Series III, strain 16)
14.5 µg/mL: MIC (Mycobacterium avium-intracellulare, Exp. Series II, strain 10, read-out: MIC) | MIC (Mycobacterium avium-intracellulare, Exp. Series III, strain 2, read-out: MIC) | MIC (Mycobacterium avium-intracellulare, Exp. Series III, strain 10, read-out: MIC) | MIC (Mycobacterium avium-intracellulare, Exp. Series III, strain 14, read-out: MIC)
8 days: Days to Confluency (Exp. Series II, strain 13) | Days to Confluency (Exp. Series III, strain 2) | Days to Confluency (Exp. Series III, strain 3) | Days to Confluency (Exp. Series III, strain 5) | Days to Confluency (Exp. Series III, strain 7) | Days to Confluency (Exp. Series III, strain 8) | Days to Confluency (Exp. Series III, strain 9)
